Data reported in patent US6723716B1, “7-acylamino-3-heteroarylthio-3-cephem carboxylic acid antibiotics and prodrugs thereof” (Essential Therapeutics, Inc., priority 1999, dated 2004).

Tests used:
S. aureus ATCC29213 = test: Human serum binding effect: MIC with and without human serum; type: cell-based, Staphylococcus aureus; conditions: 1:1 human serum:MHB
Procedure: The approximate measurement of the degree of binding of the compound to human serum proteins can be achieved by determination of the effect of the addition of human serum to the medium in which the MIC values against a selected bacterial strain is determined. The ratio of the MIC value obtained in presence of added human serum to the MIC value determined without serum addition was used as a measure of serum binding and the results of such determination are presented below in Table 2.
In addition to the standard MIC determination described above, the staphylococcal strain ATCC29213 is also tested in a ratio 1:1, human serum:MHB to obtain a preliminary estimate of the bioactivity of test compounds in serum: The assay was performed in Human Serum and Mueller-Hinton Broth (HSMHB) with a final bacterial inoculum of 1×10^6 CFU/mL (from an early-log phase culture) and a final volume of 100 μL. Control drugs, including imipenem, vancomycin, dicloxacillin, and new compounds were prepared in double-concentrated Mueller-Hinton broth at a concentration equivalent to 4-fold the desired final concentration. Dilution of compounds were prepared directly in the plates by serial 2-fold dilution in double-concentrated Mueller-Hinton using a multichannel pipette. Positive and negative growth controls were included in each plate. […] The inoculum was prepared by diluting the early log-phase (1 h) culture 1:100 with fresh double-concentrated Mueller-Hinton broth. A volume of 25 μL of the inoculum was added to each well. […] The exact inoculum was determined by applying 10 μl of 10-fold serial dilution of the bacterial suspension on TSA. After overnight incubation at 35° C., colony forming units were manually counted.

[1] = system: S. aureus ATCC 13709 (Smith diffuse); test: Murine lethal bacteremic peritonitis (septicemia) efficacy; type: in vivo, mice
Procedure: 10 mice/group were injected intraperitoneally with 2.98×10^7 cfu S. aureus ATCC 13709 (Smith diffuse) and treated at 0 and 2 hrs post-challenge with serial two-fold doses of new cephalosporin antibiotic, imipenem and vancomycin subcutaneously in order to determine the ED50. Male Swiss-Webster mice weighing originally 24.2-26.1 g were obtained from Charles Rivers Labs, Hollister, Calif. Mice were housed 10 per cage and given free access to water and mouse chow.
Staphylococcus aureus ATCC 13709 (Smith diffuse) was grown overnight at 37° C. in Brain-heart Infusion broth (BHIB). The following morning, it was subcultured to fresh BHIB and incubated for 4-5 h at 37° C. The log-phase growth cells were washed once with physiological saline and adjusted to the desired concentration by correlation of absorbency at OD 600 nm with predetermined plate counts (NCCLS, 1994). The cell suspension was mixed with an equal volume of sterile 14% hog-gastric mucin (2). Inoculum was kept in an ice bath until used (<1 h).
Mice were challenged via an injection of 0.5 mL bacterial suspension intraperitoneally. The bacterial challenge was 2.98×10^7 cfu/mouse.
Imipenem (Primaxin IV; Lot 7294A), vancomycin (Vancocin; Lot 8MU60W), and new cephalosporin antibiotic were prepared by serial two-fold dilutions to concentrations of 0.078-0.005 mg/mL, 1.2-0.075 mg/mL, 0.3-0.02 mg/mL, 0.3-0.02 mg/mL and 0.3-0.02 mg/mL respectively in sterile water (1). All antibiotics were administered subcutaneously in 0.1 mL volumes at 0 and 2 hours post-challenge. Concentrations of all compounds are based on the weight of the bioactive ingredients.
The 50% effective dose (ED50) was calculated by the probit method (3) utilizing a program entitled Probit (Nycomed-Salutar).

human serum proteins = test: Serum binding determination by ultrafiltration/HPLC; type: in vitro ADME; conditions: by HPLC
Procedure: (§1) The more accurate measurement of binding of selected cephalosporin compounds was performed using HPLC as described below.
(§2) 1. Serum is placed in a shaking water bath preheated to 37±2° C. for 5 to 10 minutes to heat serum to 37° C. Serum pH is measured and recorded, while serum is 37° C. using pH paper. Measurements are taken twice, 3 minutes apart. If the pH is not 7.4±0.4 then the pH is adjusted by blowing 5% CO2/95% O2 over the serum. After blowing for several minutes, serum is heated to 37° C. and measurements are taken twice, 3 minutes apart using pH paper to determine the pH. Store at 4° C. The serum is stable for 7 days. Always check the pH before each use.
(§3) 2. Before any centrifugation, the centrifuge temperature must be adjusted to 25±2° C. Preheat the centrifuge by spinning for 45 minutes at the same speed to be used in the assay (1900 g) with two tubes of water in the rotor and the temperature set to 25° C. When the centrifuge stops immediately check the temperature of the tubes of water with a calibrated thermometer. The temperature of the tubes of water must be 25±2° C. […] Continue spinning and measuring the temperature and adjusting the setting until the temperature is 25±2° C.
(§4) 3. Prepare blank ultrafiltrate by pipetting blank pH 7.4 serum into an Amicon Centrifree Micropartition devices, centrifuge: fixed angle rotor, 1900 g, 25° C. for 20 minutes. Heat ultrafiltrate in a shaking water bath preheated to 37° C. Measure ultrafiltrate pH and adjust to the pH of the serum (7.4±0.2).
(§5) 4. Pipette 190 ul of blank ultrafiltrate into a set of labeled 1.7 mL polypropylene microfuge tubes for 3 of each level. Pipette 10 μL of the appropriate standard stock 50, 200, 1000 μg/mL to make standards 2.5, 10, and 50 μg/mL respectively. Vortex each tube well. One set of the standard samples are mixed 1:1 with 0.2 M acetic acid and injected onto the HPLC (MSTD). These samples are the membrane standards and will be used to compare to the other standards. Pipette 190 ul of ultrafiltrate and spike with 10 ul of whatever solution (e.g. water) the standards are prepared in to make the zero standard.
(§6) 5. Pipette 475 μL of blank heated pH 7.4 serum into a set of labeled 1.7 mL polypropylene microfuge tubes for 2 of each (Serum A and Serum B). Pipette 25 μL of the 1000 μg/mL standard stock into each tube, vortex each tube well to make serum standard 50 μg/mL. Remove 100 μL of serum and deproteinate with 200 μL 4% TCA while vortexing to make serum time 0 (serum 50, T0). Place serum tubes in a shaking water bath at 37° C. for 10 minutes. Pipet 100 μL of serum out and deproteinate with 200 μL 4% TCA, to make serum time 10 min (serum 50, T10). Pipet 200 ul serum standard 50 μg/mL into an ultrafiltration device, which is not treated with TCA, to determine free drug in samples (Rat Serum 50).
(§7) 6. Transfer serum and standard samples to labeled Amicon Centrifree Micropartition filters, and centrifuge: 1900 g, 25° C. for 10 minutes. The extracted serum samples (T0 and T10) are spun down and supernatant is loaded into HPLC vials.
(§8) 7. 100 μL of ultrafiltrate sample and 100 μL of 0.2 M acetic acid were mixed together to stabilize the compound in ultrafiltrate.
(§9) 8. Transfer entire stabilized ultrafiltrate solution to a labeled autoinjector HPLC vial cap with Teflon septa, and inject on HPLC.
(§10) Peak height or area is used in a weighted linear regression.

[2] = In vitro stability of compounds in rat serum; type: in vitro ADME
Procedure: In general, compounds from the class of 7-acylamino-3-heteroarylthio-3-cephem carboxylic acids have higher chemical reactivity and lower stability towards chemical or enzymatic decomposition than most typical cephalosporins. […] Results shown in Table 2 represent percentage loss of the initial amount of cephalosporin compound upon 60 min incubation in rat serum.
Procedure for measuring degree of degradation of cephalosporin compounds in rat serum was as follows:
Fresh control rat serum (heparinized and stored frozen) is preincubated at 37° C. for 15 min in a shaking water bath. pH is measured using test strips. 25 μL of a 2 mg/mL solution cephalosporin compound (in water) of is then added to each matrix to make 1000 μL. Solutions were incubated at 37° C. 100 ul of solution was taken out at time=0, 15, 30, and 60 min post dose and added 200 μL 4% trichloroacetic acid, vortexed, and centrifuged for 10 min at 14,000 rpm in an Eppendorf microcentrifuge. 25 μL of each supernatant was injected onto HPLC. Experiment was repeated using 25 μL of a 0.2 mg/mL cephalosporin compound. Degradation is measured as the percentage of HPLC peak area at time t relative to peak area at time 0.
HPLC conditions: Beckman Ultrasphere C18 column. 5 u. 4.6 mm×25 cm. 1 mL/min of 95% 0.1 M ammonium acetate, pH 6, 5% ACN going to 75% buffer/organic over 20 min. UV monitored at 254 and 280 nm.

rhesus serum proteins = test: Serum binding determination by ultrafiltration/HPLC; type: in vitro ADME; conditions: by HPLC
Procedure: as §1, §2, §3, §4, §5, §6, §7, §8, §9, §10

rat serum proteins = test: as above; type: in vitro ADME; conditions: by HPLC
Procedure: as §1, §2, §3, §4, §5, §6, §7, §8, §9, §10

[3] = Staphylococcus aureus, ATCC13709, sc, read-out: Efficacy in murine septicemia % survival

| Compound | Human serum binding effect (ratio of MIC value determined with and without human serum added) (S. aureus ATCC29213) | responders at 0.625 mg/kg [1, 3] [%] | responders at 1.25 mg/kg [1, 3] [%] | responders at 2.5 mg/kg [1, 3] [%] | Efficacy in murine septicemia % survival ([1]; dose 5 mg/kg s.c. at 0 and 2 h post-challenge) | Serum Binding human (% of compound bound to serum) (human serum proteins) [%] | stability of compounds in rat serum ([2]; Table 2 data) | Stability in rat serum (% loss) ([2]; after 60 min exposure to rat serum, 37° C., HPLC) [%] | Serum Binding rhesus (% of compound bound to serum) (rhesus serum proteins) [%] | Serum Binding rat (% of compound bound to serum) (rat serum proteins) [%] |
| --- | --- | --- | --- | --- | --- | --- | --- | --- | --- | --- |
| CN[C@H](CC(C)C)C(=O)N[C@H]1C(=O)N[C@@H](CC(N)=O)C(=O)N[C@H]2C(=O)N[C@H]3C(=O)N[C@H](C(=O)N[C@H](C(=O)O)c4cc(O)cc(O)c4-c4cc3ccc4O)[C@H](O)c3ccc(c(Cl)c3)Oc3cc2cc(c3O[C@@H]2O[C@H](CO)[C@@H](O)[C@H](O)[C@H]2O[C@H]2C[C@](C)(N)[C@H](O)[C@H](C)O2)Oc2ccc(cc2Cl)[C@H]1O [Van., Vancomycin, reference compound] | 2 | 10 | 20 | 60 | 5/100% | 55 | – | – | – | – |
| N=C(N)NCCSCc1ncccc1SC1=C(C(=O)O)N2C(=O)[C@@H](NC(=O)/C(=N\O)c3nc(N)sc3Cl)[C@H]2SC1 [Cmpd 15, (7R)-7-[(Z)-2-(2-amino-5-chlorothiazol-4-yl)-2-(hydroxyimino)acetamido]-3-[2-(2-guanidinoethylthiomethyl)pyrid-3-ylthio]-3-cephem-4-carboxylic acid] | 2 | – | – | – | – | 83 | improved stability | 38 | 88 | 76 |
